Literature values in patent US20260053727A1, “PERSONAL CARE COMPOSITIONS WITH ENZYME-MODIFIED OILS (EMOS)” (GLYCOSBIO INC., priority 2023, published 2026).

Conditions: commonly known

## O=C([O-])c1ccccc1.[Na+] [sodium benzoate]
  antimicrobial activity: weakly antimicrobial
